Assay results reported in patent US20240082282A1 (priority 2020, published 2024).
Converted amounts (≈) assume the structure as drawn. Read-outs that look alike come from different tables or passages of the source.

Legend:
[1] = tested on: Streptococcus salivarius KLE 2370; assay type: cell-based; conditions: Streptococcus salivarius KLE 2370, anaerobic, stool isolate
[2] = tested on: Bacteroides fragilis ATCC 25285; assay type: cell-based
[3] = tested on: Staphylococcus aureus HG003; assay type: cell-based
[4] = tested on: Brevinema andersonii ATCC 43811
[5] = tested on: Bacteroides nordii KLE 2369; assay type: cell-based; conditions: Bacteroides nordii KLE 2369, anaerobic, stool isolate
[6] = tested on: Borrelia burgdorferi BbP1286; assay: microbe, parasite or virus in culture; conditions: Borreliella burgdorferi, BBP1286, read-out: Minimum inhibitory concentration (MIC)
murine gut microbiome = assay: Impact on the murine fecal microbiome (16S rRNA sequencing)
Method: Stool samples were collected and V4 region of the 16s rRNA gene was amplified using primers and sequenced (IonTorrent).
Fecal pellets were collected 3 days before and 3 days after antibiotic treatment and were stored at −80° C. in PBS. Sequencing of a stool pellet from each mouse from before and after treatment was performed by MR DNA (www.mrdnalab.com, Shallowater, TX, USA) on an Ion Torrent PGM. Using PCR primers, the V4 variable region of the 16SrRNA gene was amplified in a single-step 30 cycle PCR with the HotStarTaq Plus Master Mix Kit (Qiagen, USA). The following conditions were used: 94° C. for 3 minutes and 30 cycles of 94° C. for 30 seconds, 53° C. for 40 seconds and 72° C. for 1 minute, then a final elongation step for 5 minutes at 72° C. […] Barcodes and primers and then sequences<150 bp were removed. Further, sequences with homopolymer runs exceeding 6 bp and sequences with ambiguous calls were removed. The sequences were then denoised, OTUs were generated, and chimeras were removed; OTUs were clustered at 3% divergence. Taxonomic classification was performed using BLASTn against a database derived from RDPII available at www.rdp.cme.msu.edu) and NCBI (www.ncbi.nlm.nih.gov). The change in relative abundance of the most abundant genera from before to after treatment of each individual mouse was reported. Further, raw sequences were processed in Qiita (Gonzalez, A., et al. (2018). Nat Methods 15, 796-798; the contents of which are herein incorporated by reference in its entirety) and were demultiplexed, trimmed to 100 bp, and closed reference OTU picking was performed against the Greengenes database at 97% similarity (McDonald, D. et al. (2012). ISME J 6, 610-618; the contents of which are herein incorporated by reference in its entirety). The alpha diversity based on the Simpson index was calculated in Qiita. The change in the Simpson index was calculated for the fecal microbiome of each mouse from before to after treatment. Statistical significance was calculated using a one-way ANOVA with Tukey's multiple comparisons test (p<0.05).

[7] = tested on: Pseudomonas aeruginosa PAO1; assay type: cell-based
[8] = tested on: Blautia producta ATCC 27340; assay type: cell-based; conditions: Blautia producta ATCC 27340, anaerobic
[9] = tested on: Borreliella burgdorferi 297
[10] = tested on: Borreliella burgdorferi B31
[11] = tested on: Bifidobacterium longum ATCC BAA-999; assay type: cell-based
B. burgdorferi N40 = assay: Mouse infection model (IP injection, oral gavage); conditions: for B. burgdorferi culture (% positive) / Mean # of B. burgdorferi/10 mg of skin tissue (qPCR): twice a day for 5 days; for Culture positive (%): C3H, 5 days, whole ear culture; for B. burgdorferi culture from mice: oral gavage twice per day
[12] = tested on: Borreliella burgdorferi N40
[13] = tested on: Streptococcus sanguinis KLE 2374; assay type: cell-based; conditions: Streptococcus sanguinis KLE 2374, anaerobic, stool isolate
[14] = tested on: Staphylococcus epidermidis KLE 2378; assay type: cell-based; conditions: Staphylococcus epidermidis KLE 2378, anaerobic, stool isolate
[15] = tested on: Clostridium perfringens KLE 2326; assay: microbe, parasite or virus in culture; assay type: cell-based
[16] = tested on: Lactobacillus reuteri ATCC 23272; assay type: cell-based
[17] = tested on: Bacteroides cellulosilyticus KLE 2342; assay type: cell-based; conditions: Bacteroides cellulosilyticus KLE 2342, anaerobic, stool isolate
[18] = tested on: Streptococcus parasanguinis KLE 2375; assay type: cell-based; conditions: Streptococcus parasanguinis KLE 2375, anaerobic, stool isolate
[19] = tested on: Bacteroides ovatus KLE 2306; assay type: cell-based; conditions: Bacteroides ovatus KLE 2306, anaerobic, stool isolate
[20] = tested on: Fusobacterium nucleatum KLE 2428; assay type: cell-based; conditions: Fusobacterium nucleatum KLE 2428, anaerobic, stool isolate
[21] = tested on: Clostridium tertium KLE 2303; assay type: cell-based; conditions: Clostridium tertium KLE 2303, anaerobic, stool isolate
[22] = tested on: Bacteroides eggerthii KLE 2382; assay type: cell-based; conditions: Bacteroides eggerthii KLE 2382, anaerobic, stool isolate

Compound: CO/N=C(\C(=O)N[C@@H]1C(=O)N2C(C(=O)O)=C(CSc3nc(=O)c(=O)[nH]n3C)CS[C@H]12)c1csc(N)n1 [Ceftriaxone]
- MIC ([1]; KLE2370, read-out: Minimum inhibitory concentration (MIC)): 0.03 µg/mL (≈ 0.0541 µM)
- MIC ([2]; ATCC25285, Bacteroides fragilis ATCC 25285, anaerobic, read-out: Minimum inhibitory concentration (MIC)): 2 µg/mL (≈ 3.61 µM)
- MIC ([3]; Staphylococcus aureus HG003, read-out: Minimum inhibitory concentration (MIC)): 8 µg/mL (≈ 14.4 µM)
- MIC ([4]; Brevinema andersonii, ATCC43811, read-out: Minimum inhibitory concentration (MIC)): 0.01 µg/mL (≈ 0.018 µM)
- MIC ([5]; KLE2369, read-out: Minimum inhibitory concentration (MIC)): 1 µg/mL (≈ 1.8 µM)
- MIC [6]: 0.01 µg/mL (≈ 0.018 µM)
- MIC (Borrelia bavariensis; Borreliella bavariensis, read-out: Minimum inhibitory concentration (MIC)): 0.01 µg/mL (≈ 0.018 µM)
- Mice with Enterococcaceae blooms (murine gut microbiome; mouse, in vivo): 5/5
- MIC ([7]; Pseudomonas aeruginosa PAO1, read-out: Minimum inhibitory concentration (MIC)): 64 µg/mL (≈ 115 µM)
- MIC ([8]; ATCC27340, read-out: Minimum inhibitory concentration (MIC)): 0.5 µg/mL (≈ 0.902 µM)
- MIC ([9]; Borreliella burgdorferi, 297, read-out: Minimum inhibitory concentration (MIC)): 0.01 µg/mL (≈ 0.018 µM)
- MIC ([10]; Borreliella burgdorferi, B31, read-out: Minimum inhibitory concentration (MIC)): 0.01 µg/mL (≈ 0.018 µM)
- MIC ([11]; ATCCBAA999, Bifidobacterium longum ATCC BAA-999, anaerobic, read-out: Minimum inhibitory concentration (MIC)): 4 µg/mL (≈ 7.21 µM)
- B. burgdorferi culture (% positive) (B. burgdorferi N40; 156 mg/kg, IP injection): 0%
- Mean # of B. burgdorferi/10 mg of skin tissue (qPCR) (B. burgdorferi N40; 156 mg/kg, IP injection): <1 B. burgdorferi/10 mg of skin t
- Culture positive (%) (B. burgdorferi N40; intraperitoneal injection, daily dose 312 mg/kg/day): 0%
- MIC ([12]; Borreliella burgdorferi, N40, read-out: Minimum inhibitory concentration (MIC)): 0.01 µg/mL (≈ 0.018 µM)
- MIC ([13]; KLE2374, read-out: Minimum inhibitory concentration (MIC)): 0.12 µg/mL (≈ 0.216 µM)
- MIC ([14]; KLE2378, read-out: Minimum inhibitory concentration (MIC)): 1 µg/mL (≈ 1.8 µM)
- MIC ([15]; Clostridium perfringens, KLE2326, read-out: Minimum inhibitory concentration (MIC)): < 0.01 µg/mL
- MIC ([16]; Limosilactobacillus reuteri, ATCC23272, Lactobacillus reuteri ATCC 23272, anaerobic, read-out: Minimum inhibitory concentration (MIC)): 32 µg/mL (≈ 57.7 µM)
- MIC ([17]; KLE2342, read-out: Minimum inhibitory concentration (MIC)): 128 µg/mL (≈ 231 µM)
- MIC ([18]; KLE2375, read-out: Minimum inhibitory concentration (MIC)): 0.06 µg/mL (≈ 0.108 µM)
- MIC ([19]; KLE2306, read-out: Minimum inhibitory concentration (MIC)): 0.02 µg/mL (≈ 0.0361 µM)
- MIC ([20]; KLE2428, read-out: Minimum inhibitory concentration (MIC)): 0.5 µg/mL (≈ 0.902 µM)
- MIC ([21]; KLE2303, read-out: Minimum inhibitory concentration (MIC)): 1 µg/mL (≈ 1.8 µM)

Compound: Hygromycin A
- Minimum inhibitory concentration (MIC) [1]: 2 µg/mL
- MIC ([2]; Bacteroides fragilis): >128 µg
- Minimum inhibitory concentration (MIC) ([2]; Bacteroides fragilis ATCC 25285, anaerobic): 32 µg/mL
- Activity against S. aureus, times lower compared to B. burgdorferi ([3]; S. aureus used in the counter-screen vs B. burgdorferi): 64 times
- MIC ([3]; Staphylococcus aureus): 8 µg
- Minimum inhibitory concentration (MIC) ([3]; Staphylococcus aureus HG003): 8 µg/mL
- Minimum inhibitory concentration (MIC) ([4]; Brevinema andersonii ATCC 43811, microaerophilic): 2 µg/mL
- Minimum inhibitory concentration (MIC) [5]: 8 µg/mL
- Minimum inhibitory concentration (MIC) [22]: 64 µg/mL
- MIC (Borrelia bavariensis; B. bavariensis): 0.25 µg/mL
- MIC (Borrelia bavariensis; Borrelia bavariensis): 0.25 µg
- Minimum inhibitory concentration (MIC) (Borrelia bavariensis; Borreliella bavariensis, microaerophilic): 0.25 µg/mL
- Increases in Enterococcaceae or Enterobacteriaceae (murine gut microbiome; HygA 50 mg/kg oral, 5 days): did not lead to increases
- Mice that maintained Bacteroidaceae levels (murine gut microbiome; HygA 50 mg/kg oral, 5 days): 1/5
- Mice with decreased Bacteroidaceae (murine gut microbiome; HygA 50 mg/kg oral, 5 days): 3/5
- Mice with increased Bacteroidaceae (murine gut microbiome; HygA 50 mg/kg oral, 5 days): 1/5
- Overall fluctuation of Bacteroidaceae (murine gut microbiome; HygA 50 mg/kg oral, 5 days, not significantly different from untreated): −8.5 % relative abundance
- Change in symbiotic Lactobacillus and Lactococcus (murine gut microbiome; after treatment): prominent increase
- Changes in the composition of the microbiota (murine gut microbiome; clinically relevant doses, 16S rDNA sequencing, FIG. 8, 9A, 9B): milder
- MIC ([7]; Pseudomonas aeruginosa): >128 µg
- Minimum inhibitory concentration (MIC) ([7]; Pseudomonas aeruginosa PAO1): >128 µg/mL
- Minimum inhibitory concentration (MIC) [8]: 64 µg/mL
- Minimum inhibitory concentration (MIC) ([9]; Borreliella burgdorferi 297, microaerophilic): 0.25 µg/mL
- MIC [10]: 0.25 µg/mL
- Minimum inhibitory concentration (MIC) ([10]; Borreliella burgdorferi B31, microaerophilic): 0.25 µg/mL
- MIC ([11]; Bifidobacterium longum): 8 µg
- Minimum inhibitory concentration (MIC) ([11]; Bifidobacterium longum ATCC BAA-999, anaerobic): 8 µg/mL
- B. burgdorferi culture (% positive) (B. burgdorferi N40; 25 mg/kg, oral gavage): 50%
- Mean # of B. burgdorferi/10 mg of skin tissue (qPCR) (B. burgdorferi N40; 25 mg/kg, oral gavage): <1 B. burgdorferi/10 mg of skin t
- B. burgdorferi culture (% positive) (B. burgdorferi N40; 50 mg/kg, oral gavage): 0%
- Mean # of B. burgdorferi/10 mg of skin tissue (qPCR) (B. burgdorferi N40; 50 mg/kg, oral gavage): <1 B. burgdorferi/10 mg of skin t
- B. burgdorferi culture (% positive) (B. burgdorferi N40; 70 mg/kg, oral gavage): 0%
- Mean # of B. burgdorferi/10 mg of skin tissue (qPCR) (B. burgdorferi N40; 70 mg/kg, oral gavage): <1 B. burgdorferi/10 mg of skin t
- B. burgdorferi culture (% positive) (B. burgdorferi N40; 75 mg/kg, IP injection): 0%
- Mean # of B. burgdorferi/10 mg of skin tissue (qPCR) (B. burgdorferi N40; 75 mg/kg, IP injection): <1 B. burgdorferi/10 mg of skin t
- B. burgdorferi culture (% positive) (B. burgdorferi N40; 250 mg/kg, oral gavage): 0%
- Mean # of B. burgdorferi/10 mg of skin tissue (qPCR) (B. burgdorferi N40; 250 mg/kg, oral gavage): <1 B. burgdorferi/10 mg of skin t
- Culture positive (%) (B. burgdorferi N40; intraperitoneal injection, daily dose 100 mg/kg/day): 0%
- Culture positive (%) (B. burgdorferi N40; oral gavage, daily dose 50 mg/kg/day): 50%
- Culture positive (%) (B. burgdorferi N40; oral gavage, daily dose 100 mg/kg/day): 0%
- Culture positive (%) (B. burgdorferi N40; oral gavage, daily dose 140 mg/kg/day): 0%
- Culture positive (%) (B. burgdorferi N40; oral gavage, daily dose 500 mg/kg/day): 0%
- Clearance of infection (B. burgdorferi N40; IP injection twice a day, after 5 days of treatment, similarly to ceftriaxone control): cleared the infection
- B. burgdorferi culture from mice (B. burgdorferi N40; 10 and 25 mg/kg): B. burgdorferi were cultured from mice
- B. burgdorferi culture from mice (B. burgdorferi N40; doses higher than 25 mg/kg): not at any of the higher doses
- PCR from ear, joint and heart tissue (B. burgdorferi N40; oral gavage, doses above 50 mg/kg): negative
- Minimum inhibitory concentration (MIC) ([12]; Borreliella burgdorferi N40, microaerophilic): 0.25 µg/mL
- Minimum inhibitory concentration (MIC) [13]: 16 µg/mL
- Minimum inhibitory concentration (MIC) [14]: 32 µg/mL
- Minimum inhibitory concentration (MIC) ([15]; Clostridium perfringens KLE 2326, anaerobic, stool isolate): 8 µg/mL
- MIC ([16]; Lactobacillus reuteri): 32 µg
- Minimum inhibitory concentration (MIC) ([16]; Lactobacillus reuteri ATCC 23272, anaerobic): 32 µg/mL
- Minimum inhibitory concentration (MIC) [17]: 8 µg/mL
- Minimum inhibitory concentration (MIC) [18]: 4 µg/mL
- Minimum inhibitory concentration (MIC) [19]: 64 µg/mL
- Minimum inhibitory concentration (MIC) [20]: 1 µg/mL
- Minimum inhibitory concentration (MIC) [21]: 8 µg/mL
